Test results reported in ChEMBL document CHEMBL1201862, “PubChem BioAssay data set” (2004).
Calls of active or inactive are those of the source.

Columns and labels:
[1] = HEK-293T cell viability reduction – luminescence, B-cell screen hits, cytotoxicity control for BCR NF-kB inhibitor project, dose response (AID 489021); format: functional, cell-based;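 note: HEK-293T cells carrying an NF-kB luciferase reporter; cells exposed to compound for about 14 hours before viability readout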
[2] = A cytotoxicity screen of small molecule inhibitors of the PhoP region in Salmonella typhi identified in the primary screen. [Related pubchem assays: 1850, 1864, 1985 ]; format: functional
[3] = Trypanosoma cruzi growth suppression in host cells – NIH3T3 host cells, beta-gal luminescence, confirmation (AID 2044); format: functional, cell-based;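 note: intracellular parasites grown in NIH/3T3 mouse fibroblasts as host cells; luminescent beta-galactosidase reporter signal from transgenic T. cruzi replicating inside host cells; inhibitors lower the luminescence signal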
[4] = NIH3T3 cell viability loss – ATP luminescence, mouse fibroblasts, counter-screen, dose response (AID 2010); format: functional, cell-based;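 note: cells exposed to compound for about 90 hours before reading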
[5] = viability loss in THP-1 monocytes – THP-1 cells, cytotoxicity control for Vif-APOBEC3G degradation inhibitor project, dose response (AID 1117359); format: functional; conditions: THP-1
[6] = Luminescence Cell-Based Dose Response HTS to Identify Activators of Luciferase Translation or Activity in H4 […] Cells. [Related pubchem assays: 1829 (Project Summary), 1814 (Primary HTS)]; format: functional
[7] = system: H4; experiment: Luminescence Cell-Based Dose Response HTS to Identify Activators of 5'UTR Stem-Loop Driven Prion Protein mRNA Translation in H4 Neuroglioblastoma Cells. [Related pubchem assays: 1829 (Project Summary), 1814 (Primary HTS)]; format: functional; conditions: Homo sapiens
[8] = molecular target: T1, Replicative DNA helicase DnaB (Mycobacterium tuberculosis, UniProt P9WMR3); experiment: DnaB intein splicing inhibitors, dose response, biochemical, cell-free fluorescence (AID 449749); format: functional
T1 sequence (P9WMR3 whole entry): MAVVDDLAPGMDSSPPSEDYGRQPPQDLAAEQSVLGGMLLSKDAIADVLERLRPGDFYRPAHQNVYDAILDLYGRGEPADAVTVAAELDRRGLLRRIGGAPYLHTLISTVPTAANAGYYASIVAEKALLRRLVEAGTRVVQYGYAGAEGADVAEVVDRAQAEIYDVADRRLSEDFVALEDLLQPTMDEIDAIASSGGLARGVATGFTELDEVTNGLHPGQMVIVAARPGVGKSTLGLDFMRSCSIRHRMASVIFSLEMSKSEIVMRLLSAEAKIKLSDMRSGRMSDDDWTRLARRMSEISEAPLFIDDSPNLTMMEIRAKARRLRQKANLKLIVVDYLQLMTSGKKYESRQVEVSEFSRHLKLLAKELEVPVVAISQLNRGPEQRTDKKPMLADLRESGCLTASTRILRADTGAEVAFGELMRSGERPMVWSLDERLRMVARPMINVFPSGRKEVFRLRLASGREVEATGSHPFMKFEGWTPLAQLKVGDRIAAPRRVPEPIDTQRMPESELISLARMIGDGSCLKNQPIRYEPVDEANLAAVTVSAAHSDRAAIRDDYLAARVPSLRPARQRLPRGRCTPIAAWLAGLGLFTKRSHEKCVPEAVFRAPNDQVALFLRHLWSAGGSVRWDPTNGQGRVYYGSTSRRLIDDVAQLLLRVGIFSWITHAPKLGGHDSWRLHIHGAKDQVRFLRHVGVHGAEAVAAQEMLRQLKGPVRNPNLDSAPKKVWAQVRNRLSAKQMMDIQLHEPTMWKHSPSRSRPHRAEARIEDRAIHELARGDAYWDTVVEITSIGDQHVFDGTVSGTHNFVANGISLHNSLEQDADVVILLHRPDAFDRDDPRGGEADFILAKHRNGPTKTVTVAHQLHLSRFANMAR

[9] = molecular target: T2, Protein RecA (Mycobacterium tuberculosis, UniProt P9WHJ3); experiment: Fluorescence Cell-Free Homogeneous Dose Retest to Identify Inhibitors of RecA-Intein Splicing Activity. [Related pubchem assays (depositor defined):AID2097, AID2223, AID489010, AID492950]; format: functional
T2 sequence (P9WHJ3 whole entry): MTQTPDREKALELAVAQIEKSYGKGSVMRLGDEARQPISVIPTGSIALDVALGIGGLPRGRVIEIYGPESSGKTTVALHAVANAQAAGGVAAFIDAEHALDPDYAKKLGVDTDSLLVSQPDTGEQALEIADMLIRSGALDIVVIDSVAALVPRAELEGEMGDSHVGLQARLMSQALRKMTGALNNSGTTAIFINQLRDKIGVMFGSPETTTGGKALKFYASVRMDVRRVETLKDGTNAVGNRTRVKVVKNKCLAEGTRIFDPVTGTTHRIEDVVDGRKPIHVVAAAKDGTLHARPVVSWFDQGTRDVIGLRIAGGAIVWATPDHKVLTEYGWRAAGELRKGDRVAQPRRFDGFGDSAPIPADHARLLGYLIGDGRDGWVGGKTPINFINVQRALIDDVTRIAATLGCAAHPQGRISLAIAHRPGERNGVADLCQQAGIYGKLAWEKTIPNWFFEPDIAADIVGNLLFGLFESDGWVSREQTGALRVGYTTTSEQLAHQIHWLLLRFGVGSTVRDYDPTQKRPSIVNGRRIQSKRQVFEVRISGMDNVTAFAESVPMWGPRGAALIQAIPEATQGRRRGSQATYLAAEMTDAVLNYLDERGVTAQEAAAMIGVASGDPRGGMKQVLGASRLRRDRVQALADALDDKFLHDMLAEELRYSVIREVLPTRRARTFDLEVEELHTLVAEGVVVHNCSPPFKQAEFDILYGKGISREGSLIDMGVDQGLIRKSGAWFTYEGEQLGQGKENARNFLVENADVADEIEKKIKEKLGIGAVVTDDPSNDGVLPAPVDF

[10] = Luminescence Cell-Based Dose Confirmation HTS to Identify Activators of 5'UTR Stem-Loop Driven Alpha-Synuclein mRNA Translation in H4 Neuroglioblastoma Cells. [Related pubchem assays: 1829 (Project Summary), 1814 (Primary HTS)]; format: functional
[11] = molecular target: T3, DNA repair protein RAD52 homolog (Homo sapiens, UniProt P43351); format: functional, biochemical
T3 sequence (P43351 whole entry): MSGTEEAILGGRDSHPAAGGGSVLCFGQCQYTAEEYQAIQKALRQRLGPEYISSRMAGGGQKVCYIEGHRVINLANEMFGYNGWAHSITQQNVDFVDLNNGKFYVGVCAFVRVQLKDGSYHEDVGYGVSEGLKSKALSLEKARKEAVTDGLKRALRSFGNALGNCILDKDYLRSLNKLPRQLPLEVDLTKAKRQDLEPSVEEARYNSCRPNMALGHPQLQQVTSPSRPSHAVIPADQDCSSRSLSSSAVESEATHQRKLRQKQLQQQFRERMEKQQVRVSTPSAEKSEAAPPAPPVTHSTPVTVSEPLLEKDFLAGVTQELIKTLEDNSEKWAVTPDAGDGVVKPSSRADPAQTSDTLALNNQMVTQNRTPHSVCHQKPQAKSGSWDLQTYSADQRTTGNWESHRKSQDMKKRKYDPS

[12] = molecular target: T4, Histone-lysine N-methyltransferase NSD2 (Homo sapiens, UniProt O96028); format: biochemical
T4 sequence (O96028 whole entry): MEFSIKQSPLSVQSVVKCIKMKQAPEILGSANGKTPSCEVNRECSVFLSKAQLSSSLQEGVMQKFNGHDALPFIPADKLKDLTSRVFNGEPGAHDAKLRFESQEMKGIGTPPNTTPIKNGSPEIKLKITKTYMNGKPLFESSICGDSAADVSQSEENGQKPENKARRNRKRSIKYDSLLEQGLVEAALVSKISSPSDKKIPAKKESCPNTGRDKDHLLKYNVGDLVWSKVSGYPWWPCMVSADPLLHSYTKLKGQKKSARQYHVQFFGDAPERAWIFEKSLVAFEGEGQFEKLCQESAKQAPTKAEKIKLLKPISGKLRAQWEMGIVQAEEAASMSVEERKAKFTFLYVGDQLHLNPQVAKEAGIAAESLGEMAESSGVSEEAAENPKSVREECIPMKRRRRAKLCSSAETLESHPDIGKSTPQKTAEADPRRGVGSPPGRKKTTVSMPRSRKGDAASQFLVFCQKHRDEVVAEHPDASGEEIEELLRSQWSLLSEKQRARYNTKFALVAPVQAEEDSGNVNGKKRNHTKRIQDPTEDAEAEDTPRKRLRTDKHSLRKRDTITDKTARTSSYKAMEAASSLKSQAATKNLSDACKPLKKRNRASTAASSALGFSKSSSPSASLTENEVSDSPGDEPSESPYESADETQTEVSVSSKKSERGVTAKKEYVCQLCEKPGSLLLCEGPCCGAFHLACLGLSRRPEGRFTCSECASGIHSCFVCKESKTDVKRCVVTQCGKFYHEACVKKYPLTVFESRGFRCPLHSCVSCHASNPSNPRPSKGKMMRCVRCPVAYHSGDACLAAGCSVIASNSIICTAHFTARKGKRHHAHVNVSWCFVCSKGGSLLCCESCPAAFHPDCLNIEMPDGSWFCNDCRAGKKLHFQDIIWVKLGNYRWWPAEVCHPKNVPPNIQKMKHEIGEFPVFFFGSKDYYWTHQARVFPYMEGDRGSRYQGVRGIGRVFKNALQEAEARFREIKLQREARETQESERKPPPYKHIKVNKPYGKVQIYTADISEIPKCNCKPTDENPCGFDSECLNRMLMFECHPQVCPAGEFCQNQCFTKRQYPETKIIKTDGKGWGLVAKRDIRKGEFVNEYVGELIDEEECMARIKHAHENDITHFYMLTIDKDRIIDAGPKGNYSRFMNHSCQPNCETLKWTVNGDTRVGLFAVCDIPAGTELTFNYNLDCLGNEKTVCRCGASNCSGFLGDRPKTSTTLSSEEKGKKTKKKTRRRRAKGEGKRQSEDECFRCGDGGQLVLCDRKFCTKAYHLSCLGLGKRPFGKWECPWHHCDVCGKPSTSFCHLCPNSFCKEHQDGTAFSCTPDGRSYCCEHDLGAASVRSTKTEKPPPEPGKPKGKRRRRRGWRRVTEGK

[13] = molecular target: Glyceraldehyde-3-phosphate dehydrogenase (Homo sapiens, UniProt P04406)
[14] = molecular target: Heat shock protein HSP 90-alpha (Homo sapiens, UniProt P07900); format: functional, organism-based
[15] = cells; format: functional
[16] = P. falciparum Dd2 growth inhibitors, dose response, SYBR Green, cherry-picked samples (AID 1159567); format: functional, cell-based
[17] = Dd2 malaria parasite growth inhibition potency – SYBR Green, dry powder samples, dose response (AID 1159566); format: functional, cell-based;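 note: potency for growth inhibition with lower SYBR green DNA signal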
[18] = growth inhibition of yeast DHODH-expressing 3D7 parasites – SYBR Green, dry powder samples, dose response (AID 1159570); format: functional, cell-based;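 note: parasite growth measured after 72 hours of compound exposure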
[19] = growth inhibition of PfATP4-mutant resistant parasites – NITD609-resistant line, SYBR Green, dry powder, dose response (AID 1159571); format: functional, cell-based;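 note: parasites synchronized at ring stage by sorbitol before testing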
[20] = molecular target: T5, Protein skinhead-1 (Caenorhabditis elegans, UniProt P34707); format: functional
T5 sequence (P34707 whole entry): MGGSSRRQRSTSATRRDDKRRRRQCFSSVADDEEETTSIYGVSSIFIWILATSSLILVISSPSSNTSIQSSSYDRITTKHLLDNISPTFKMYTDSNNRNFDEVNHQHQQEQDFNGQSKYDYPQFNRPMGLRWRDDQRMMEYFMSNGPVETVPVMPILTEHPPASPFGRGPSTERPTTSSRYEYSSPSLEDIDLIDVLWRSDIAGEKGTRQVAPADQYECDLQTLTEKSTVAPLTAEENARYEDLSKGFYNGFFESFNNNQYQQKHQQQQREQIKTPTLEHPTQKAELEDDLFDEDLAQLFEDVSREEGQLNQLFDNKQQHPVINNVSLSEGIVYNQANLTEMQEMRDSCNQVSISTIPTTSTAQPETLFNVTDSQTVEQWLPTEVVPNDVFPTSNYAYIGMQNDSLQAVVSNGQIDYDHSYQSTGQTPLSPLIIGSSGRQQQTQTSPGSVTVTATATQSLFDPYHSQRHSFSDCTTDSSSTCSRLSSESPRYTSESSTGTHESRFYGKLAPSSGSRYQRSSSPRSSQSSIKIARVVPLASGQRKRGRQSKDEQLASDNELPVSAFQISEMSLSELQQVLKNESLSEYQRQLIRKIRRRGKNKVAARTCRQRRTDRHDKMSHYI

Sequence of Glyceraldehyde-3-phosphate dehydrogenase (P04406 whole entry): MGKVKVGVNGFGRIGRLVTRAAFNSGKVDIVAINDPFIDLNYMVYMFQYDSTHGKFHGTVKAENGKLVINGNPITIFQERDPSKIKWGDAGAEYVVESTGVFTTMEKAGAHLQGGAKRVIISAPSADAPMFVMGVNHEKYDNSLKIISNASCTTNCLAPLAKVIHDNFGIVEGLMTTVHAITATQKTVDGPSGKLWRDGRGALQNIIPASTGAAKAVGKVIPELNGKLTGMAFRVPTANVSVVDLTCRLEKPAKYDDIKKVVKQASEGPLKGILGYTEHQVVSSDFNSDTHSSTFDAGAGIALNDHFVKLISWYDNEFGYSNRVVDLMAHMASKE

Cc1cc(C)c2nc(NC(=O)[C@@H](NC(=O)c3cccc(S(=O)(=O)N4CCOCC4)c3)C(C)C)sc2c1
IC50 [1]: > 80 µM (inactive)

O=C(CCNS(=O)(=O)c1cccc2nonc12)N1CCN(c2cccc(Cl)c2)CC1
EC50 [2]: > 50 µM (active)

CCN1CCN(c2ccc(S(=O)(=O)N3CCCCC3)cc2NC(=O)Cc2ccc(Cl)c(Cl)c2)CC1
EC50 [3]: 0.162 µM (active) | EC50 [4]: 6.52 µM (active) | CC50 [5]: 21.2 µM (active)

CC(C)c1n[nH]c2c1C(c1ccco1)C(C#N)=C(N)O2 (stereo unspecified)
EC50 [6]: > 120 µM (not active) | EC50 [7]: 92.5 µM (active) | AC50 [8]: 32.4 µM (active) | IC50 [1]: > 80 µM (inactive) | EC50 [9]: 3.05 µM (active) | EC50 [10]: > 120 µM (not active)

CN1CCN(c2ccc(N)cc2Cl)CC1
AC50 [11]: 0.931 µM (active) | AC50 [12]: > 20 µM (inactive)

CC(C)(C)Nc1c2ccccc2nc2ccccc12
EC50 [2]: > 50 µM (active)

CCN(CC)CCOC(=O)c1ccc(NC(=O)CCCN2C(=O)S/C(=C/c3ccc(OC)cc3)C2=S)cc1
IC50 [1]: > 80 µM (inactive)

C[C@H]1CN(C2=C(Cl)C(=O)N(c3ccc(C(F)(F)F)cc3)C2=O)CCN1
IC50 [13]: > 50 µM (inconclusive)

N=c1c(C(=O)NC2CCCC2)cc2c(=O)n3ccccc3nc2n1CCN1CCOCC1
IC50 [1]: > 80 µM (inactive)

COC(=O)C(C)Oc1cc(C)cc2oc(=O)c3c(c12)CCC3 (stereo unspecified)
IC50 [1]: > 80 µM (inactive)

O=C(Cc1ccc(F)cc1)NC1CCCC1
EC50 [2]: > 50 µM (active)

O=C1C(Cl)=C(N2CCN(Cc3ccc4c(c3)OCO4)CC2)C(=O)N1c1ccc(Cl)nc1
IC50 [13]: > 50 µM (inconclusive)

N#C/C(=C\c1ccc([N+](=O)[O-])o1)C(=O)Nc1ccc(F)cc1
AC50 [14]: 0.444 µM (active) | CC50 [5]: > 40 µM (active)

CCOc1ccccc1NC(=O)Nc1ccncc1
EC50 [2]: > 50 µM (active)

Cc1cs/c(=N\c2cccnc2)n1CC1CCCCC1
IC50 [15]: > 50 µM (active)

C[C@@H]1CN([C@@H](C)CO)C(=O)c2cccc(NC(=O)Nc3ccc4c(c3)OCO4)c2O[C@@H]1CN(C)C(=O)Nc1ccc2c(c1)OCO2
AC50 [16]: 1.2 µM (active) | AC50 [17]: 0.954 µM (active) | AC50 [18]: 1.52 µM (active) | AC50 [19]: 0.865 µM (active)

O=[N+]([O-])c1ccc2nc(-c3ccccc3)oc2c1
IC50 [20]: 63.6 µM (inactive) | CC50 [5]: > 40 µM (active)

Cc1nc(NC(=N)N)nc2ccccc12
AC50 [11]: 13.7 µM (active)
